# Key:
# Assay type in all cases: functional
# Conditions in all cases: time 18-20 hrs
# Escherichia coli [1] = assay: Antibacterial activity against ESBL-producing multidrug-resistant Escherichia coli clinical isolate 14-1 assessed as inhibition of bacterial growth incubated for 18 to 20 hrs by two fold serial dilution assay
# Pseudomonas aeruginosa [2] = assay: Antibacterial activity against IMP-4 producing multidrug-resistant Pseudomonas aeruginosa clinical isolate 17-1 assessed as inhibition of bacterial growth incubated for 18 to 20 hrs by two fold serial dilution assay
# Escherichia coli [3] = assay: Antibacterial activity against ESBL-producing multidrug-resistant Escherichia coli clinical isolate 14-2 assessed as inhibition of bacterial growth incubated for 18 to 20 hrs by two fold serial dilution assay
# Acinetobacter baumannii [4] = assay: Antibacterial activity against OXA-23 producing multidrug-resistant Acinetobacter baumannii clinical isolate 15-4 assessed as inhibition of bacterial growth incubated for 18 to 20 hrs by two fold serial dilution assay
# Klebsiella pneumoniae [5] = assay: Antibacterial activity against KPC-2 producing multidrug-resistant Klebsiella pneumoniae clinical isolate 15-5 assessed as inhibition of bacterial growth incubated for 18 to 20 hrs by two fold serial dilution assay
# Acinetobacter baumannii [6] = assay: Antibacterial activity against OXA-23 producing multidrug-resistant Acinetobacter baumannii clinical isolate 15-2 assessed as inhibition of bacterial growth incubated for 18 to 20 hrs by two fold serial dilution assay
# Pseudomonas aeruginosa [7] = assay: Antibacterial activity against IMP-4 producing multidrug-resistant Pseudomonas aeruginosa clinical isolate 17-13 assessed as inhibition of bacterial growth incubated for 18 to 20 hrs by two fold serial dilution assay
# Klebsiella pneumoniae [8] = assay: Antibacterial activity against KPC-2 producing multidrug-resistant Klebsiella pneumoniae clinical isolate 15-1 assessed as inhibition of bacterial growth incubated for 18 to 20 hrs by two fold serial dilution assay
# Pseudomonas aeruginosa [9] = assay: Antibacterial activity against IMP-4 producing multidrug-resistant Pseudomonas aeruginosa clinical isolate 19-17 assessed as inhibition of bacterial growth incubated for 18 to 20 hrs by two fold serial dilution assay
# Escherichia coli [10] = assay: Antibacterial activity against ESBL-producing multidrug-resistant Escherichia coli clinical isolate 14-4 assessed as inhibition of bacterial growth incubated for 18 to 20 hrs by two fold serial dilution assay
# Acinetobacter baumannii [11] = assay: Antibacterial activity against OXA-23 producing multidrug-resistant Acinetobacter baumannii clinical isolate 15-3 assessed as inhibition of bacterial growth incubated for 18 to 20 hrs by two fold serial dilution assay
# Klebsiella pneumoniae [12] = assay: Antibacterial activity against KPC-2 producing multidrug-resistant Klebsiella pneumoniae clinical isolate 15-2 assessed as inhibition of bacterial growth incubated for 18 to 20 hrs by two fold serial dilution assay
# Escherichia coli [13] = assay: Antibacterial activity against Escherichia coli ATCC35218 assessed as inhibition of bacterial growth incubated for 18 to 20 hrs by two fold serial dilution assay
# Acinetobacter baumannii [14] = assay: Antibacterial activity against OXA-23 producing multidrug-resistant Acinetobacter baumannii clinical isolate 15-1 assessed as inhibition of bacterial growth incubated for 18 to 20 hrs by two fold serial dilution assay
# Acinetobacter baumannii [15] = assay: Antibacterial activity against OXA-23 producing multidrug-resistant Acinetobacter baumannii clinical isolate 15-5 assessed as inhibition of bacterial growth incubated for 18 to 20 hrs by two fold serial dilution assay
# Klebsiella pneumoniae [16] = assay: Antibacterial activity against KPC-2 producing multidrug-resistant Klebsiella pneumoniae clinical isolate 15-3 assessed as inhibition of bacterial growth incubated for 18 to 20 hrs by two fold serial dilution assay
# Pseudomonas aeruginosa [17] = assay: Antibacterial activity against IMP-4 producing multidrug-resistant Pseudomonas aeruginosa clinical isolate 15-4 assessed as inhibition of bacterial growth incubated for 18 to 20 hrs by two fold serial dilution assay
# Pseudomonas aeruginosa [18] = assay: Antibacterial activity against Pseudomonas aeruginosa ATCC 27853 assessed as inhibition of bacterial growth incubated for 18 to 20 hrs by two fold serial dilution assay
# Pseudomonas aeruginosa [19] = assay: Antibacterial activity against IMP-4 producing multidrug-resistant Pseudomonas aeruginosa clinical isolate 15-5 assessed as inhibition of bacterial growth incubated for 18 to 20 hrs by two fold serial dilution assay
# Pseudomonas aeruginosa [20] = assay: Antibacterial activity against IMP-4 producing multidrug-resistant Pseudomonas aeruginosa clinical isolate 15-1 assessed as inhibition of bacterial growth incubated for 18 to 20 hrs by two fold serial dilution assay
compound,measurement,setting,value
Nc1nc(/C(=N/OC(C(=O)O)C2CCC2)C(=O)N[C@@H]2C(=O)N3C(C(=O)O)=C(CSCCNC(=O)c4ccc(O)c(O)c4Cl)CS[C@H]23)cs1.O=C(O)C(F)(F)F (stereo partly drawn),MIC,Escherichia coli [1],0.5 mg/L
same,MIC,Pseudomonas aeruginosa [2],8 mg/L
same,MIC,Escherichia coli [3],4 mg/L
same,MIC,Acinetobacter baumannii [4],32 mg/L
same,MIC,Klebsiella pneumoniae [5],4 mg/L
same,MIC,Acinetobacter baumannii [6],32 mg/L
same,MIC,Pseudomonas aeruginosa [7],1 mg/L
same,MIC,Klebsiella pneumoniae [8],8 mg/L
same,MIC,Pseudomonas aeruginosa [9],0.5 mg/L
same,MIC,Escherichia coli [10],0.25 mg/L
same,MIC,Acinetobacter baumannii [11],16 mg/L
same,MIC,Klebsiella pneumoniae [12],4 mg/L
same,MIC,Escherichia coli [13],0.125 mg/L
same,MIC,Acinetobacter baumannii [14],32 mg/L
same,MIC,Acinetobacter baumannii [15],64 mg/L
same,MIC,Klebsiella pneumoniae [16],16 mg/L
CC(C)(O/N=C(\C(=O)N[C@@H]1C(=O)N2C(C(=O)O)=C(CS[C@@H]3C[C@H]4CC[C@@H](C3)N4C(=O)c3ccc(O)c(O)c3Cl)CS[C@H]12)c1csc(N)n1)C(=O)O.O=C(O)C(F)(F)F,MIC,Escherichia coli [1],0.25 mg/L
same,MIC,Escherichia coli [3],16 mg/L
same,MIC,Acinetobacter baumannii [4],> 64 mg/L
same,MIC,Klebsiella pneumoniae [5],1 mg/L
same,MIC,Acinetobacter baumannii [6],64 mg/L
same,MIC,Klebsiella pneumoniae [8],2 mg/L
same,MIC,Escherichia coli [10],16 mg/L
same,MIC,Pseudomonas aeruginosa [17],16 mg/L
same,MIC,Pseudomonas aeruginosa [18],2 mg/L
same,MIC,Acinetobacter baumannii [11],64 mg/L
same,MIC,Klebsiella pneumoniae [12],1 mg/L
same,MIC,Pseudomonas aeruginosa [19],16 mg/L
same,MIC,Acinetobacter baumannii [14],64 mg/L
same,MIC,Acinetobacter baumannii [15],> 64 mg/L
same,MIC,Pseudomonas aeruginosa [20],16 mg/L
same,MIC,Klebsiella pneumoniae [16],64 mg/L
Nc1nc(/C(=N/OC(C(=O)O)C2CC2)C(=O)N[C@@H]2C(=O)N3C(C(=O)O)=C(CSCCNC(=O)c4ccc(O)c(O)c4Cl)CS[C@H]23)cs1.O=C(O)C(F)(F)F (stereo partly drawn),MIC,Escherichia coli [1],0.5 mg/L
same,MIC,Pseudomonas aeruginosa [2],1 mg/L
same,MIC,Escherichia coli [3],4 mg/L
same,MIC,Acinetobacter baumannii [4],64 mg/L
same,MIC,Klebsiella pneumoniae [5],4 mg/L
same,MIC,Acinetobacter baumannii [6],64 mg/L
same,MIC,Pseudomonas aeruginosa [7],1 mg/L
same,MIC,Klebsiella pneumoniae [8],16 mg/L
same,MIC,Pseudomonas aeruginosa [9],1 mg/L
same,MIC,Escherichia coli [10],0.5 mg/L
same,MIC,Acinetobacter baumannii [11],64 mg/L
same,MIC,Klebsiella pneumoniae [12],4 mg/L
same,MIC,Escherichia coli [13],0.25 mg/L
same,MIC,Acinetobacter baumannii [14],32 mg/L
same,MIC,Acinetobacter baumannii [15],64 mg/L
same,MIC,Klebsiella pneumoniae [16],64 mg/L

# — ChEMBL document CHEMBL5543142, “Discovery of YFJ-36: Design, Synthesis, and Antibacterial Activities of Catechol-Conjugated β-Lactams against Gram-Negative Bacteria” (J Med Chem, 2024)
